Experimental data as given in publication PMC11571215, “Optimization of Antiproliferative Properties of Triimine Copper(II) Complexes” (Journal of Medicinal Chemistry, 2024).

How the values were obtained:
[1] = system: BAX and BCL-2 proteins in HCT116-DoxR cells; assay: BAX and BCL-2 protein expression by Western Blot; assay type: cell-based, human; settings: 48 h at IC50; normalized to 0.1% DMSO control and β-actin
Experimental: 0.1% DMSO was used as a negative control and β-actin protein was used for the normalization of the total protein quantity.
HCT116-DoxR cells were seeded in a 25 cm^2 T-flask at a density of 2 × 10^6 cells/T-flask. […] Cells were incubated for 48 h and later were washed and collected using cold PBS 1× and a cell scraper. […]
After the storage period, the samples were submitted 5 ultrasound (Elma sonicator, D-78224 Singen/Htw, Germany) cycles on ice (2 min and 30 s on ultrasound followed by 1 min period on ice) and then centrifuged at 10,000 × g for 5 min. The supernatant was transferred to a 1.5 mL Eppendorf tube, and the total protein extracted was quantified with Pierce 660 nm Protein Assay kit (ThermoFisher Scientific, MA, USA).
In the SDS-PAGE analysis of BAX and BCL-2 proteins, 20 μg of protein was applied into a 10% polyacrylamide gel as well as NZYColour protein marker II and transferred to a 0.45 μm polyvinylidene fluoride (PVDF) membrane (GE Healthcare Life Sciences, Germany). […] Protein quantification was done by densitometry with ImageJ software.

HCT116-DoxR cells = assay: Cellular senescence (beta-galactosidase, flow cytometry); assay type: cell-based, human; settings: 48 h at IC50, vs 0.1% DMSO
Experimental: The percentage of senescent cells was assessed using the Senescence Assay Kit (Abcam), enabling the quantification of beta-galactosidase activity through flow cytometry. […] A 0.1% (v/v) DMSO solution served as vehicle control, and Dox and Cis were used as positive controls.
In this assay, a senescence assay kit (Beta Galactosidase, Fluorescence) (ab228562; Abcam, UK) was used. HCT116-DoxR cells were seeded in 24-well plates at a density of 5 × 10^5 cells/well and incubated for 24 h, at the conditions mentioned before. […] Additionally, 0.1% (v/v) DMSO was used as a vehicle control, and 6 μM Dox and 5 μM Cis were used as positive controls. At the end of the incubation period, the medium was removed, and 500 μL of DMEM with 1.5 μL of Senescence dye was added to each well. The plates were incubated for an additional 1–2 h at 37 °C. Subsequently, the well contents were removed, and the cells were washed twice with Wash Buffer (provided by the kit). The cells were trypsinized with TrypLE Express and then centrifuged for 5 min at 500 × g. After centrifugation, the cells were washed with the wash buffer, centrifuged, and resuspended again in 500 μL of Wash Buffer. The samples were subsequently analyzed by an Attune acoustic focusing flow cytometer (Life Technologies, Carlsbad, USA), and the results were analyzed by the respective software (Attune Cytometric software).

[2] = biological target: T1, bovine serum albumin (BSA) (Bos taurus, UniProt P02769); assay: Interaction with bovine serum albumin (UV-vis, fluorescence); assay type: binding; settings: 24 h, 37 °C; for BSA UV-Visible absorbance change: BSA 20 µM, complexes 10, 25 and 50 µM; for BSA fluorescence quenching: BSA 20 μM, complexes 10-100 µM, excitation 278 nm
T1 construct: composed of single polypeptide chains with 583 amino
Experimental: All solutions used to perform the BSA interaction assays were diluted in filtered buffer (10 mM phosphate buffer and 150 mM NaCl) pH 7.0, with BSA at a fixed final concentration of 20 μM and the concentrations of the complexes varying from 10 to 100 μM. Control solutions were also prepared, namely, a solution containing only BSA, a solution consisting of BSA + DMSO, and a solution consisting of DMSO only. Solutions were analyzed after 24 h of incubation at 37 °C. UV–visible absorption spectra were acquired using the Evolution 300 UV–vis (Thermo Fisher Scientific, Waltham, MA, USA) in the wavelength range between 245 and 500 nm in quartz cuvettes. The fluorescence of the samples mentioned was analyzed using a Cary Eclipse fluorimeter (VARIAN, California, USA). The BSA molecule was excited at 278 nm (maximum absorption peak), and emission was recorded between 290 and 500 nm. The setup was set at a slow speed (120 nm/min) using 5 nm slits. The absorbance value of the buffer containing DMSO (at the respective percentages) was subtracted from that of each sample.
12. Interaction with Bovine Serum Albumin (BSA)
In the perspective of translating the complexes into clinical practice and considering their administration and distribution in the human body, it is essential to examine their potential interaction with albumin, a protein present in human plasma at high concentrations. In this regard, bovine serum albumin (BSA) was utilized as a model. BSA is the most abundant plasma protein in vertebrates, sharing approximately 76% similarity with human serum albumin (HSA) and composed of single polypeptide chains with 583 amino […]
UV-Visible spectroscopy is an effective method for predicting conformational changes in proteins when interacting with small molecules such as drugs. The interaction of BSA […]
spectroscopy, considering the intrinsic fluorescence of tryptophan residues in BSA. Figure […]
DMSO and BSA in the presence of increasing concentrations of the metallic complexes.
(1 picture or pasted object on this page, not shown here)

T1 sequence (P02769 25-607): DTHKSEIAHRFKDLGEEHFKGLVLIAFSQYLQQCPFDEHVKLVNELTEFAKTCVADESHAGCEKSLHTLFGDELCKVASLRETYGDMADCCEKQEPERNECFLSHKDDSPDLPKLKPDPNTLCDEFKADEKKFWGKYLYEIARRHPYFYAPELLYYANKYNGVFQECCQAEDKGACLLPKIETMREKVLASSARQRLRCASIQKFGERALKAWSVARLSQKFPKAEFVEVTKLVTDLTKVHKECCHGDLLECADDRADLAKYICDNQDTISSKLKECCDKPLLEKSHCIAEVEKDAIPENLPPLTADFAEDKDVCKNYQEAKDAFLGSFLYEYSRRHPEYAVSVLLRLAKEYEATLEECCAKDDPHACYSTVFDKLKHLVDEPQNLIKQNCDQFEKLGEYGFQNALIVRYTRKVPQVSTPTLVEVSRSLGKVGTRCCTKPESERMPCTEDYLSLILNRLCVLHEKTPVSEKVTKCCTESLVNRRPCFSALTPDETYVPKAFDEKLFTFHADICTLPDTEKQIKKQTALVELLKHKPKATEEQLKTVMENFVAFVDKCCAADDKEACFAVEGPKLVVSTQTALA

Row | Structure (SMILES) | BAX/BCL-2 ratio higher than control [1] [×] | senescent cells (HCT116-DoxR cells) | BSA UV-Visible absorbance change [2] | BSA fluorescence quenching [2]
1 | [Cl][Cu-3]12([Cl])[n+]3ccccc3-c3cc(-c4cccc5ccccc45)cc([n+]31)-c1cccc[n+]12 [Cu1a] | 1.80 | increase in the percentage of senescent cells | hypochromism | attenuation of BSA fluorescence was observed
2 | [Cl][Cu-3]12([Cl])[n+]3ccccc3-c3cc(-c4ccc5ccccc5c4)cc([n+]31)-c1cccc[n+]12 [Cu1b] | 1.65 | highest quantity of cells in senescence | hypochromism | an increased quenching effect was observed
